Experimental data from US20130158014A1, “METHOD FOR TREATING DISEASES ASSOCIATED WITH ALTERATIONS IN CELLULAR INTEGRITY USING RHO KINASE INHIBITOR COMPOUNDS” (priority 2008, published 2013).

Assays:
[1] = tested on: LPS-challenged mice; assay: LPS-induced cytokine production assay (IL-1β in BALF); type: in vivo, mouse; conditions: intratracheal, one hour prior to LPS challenge; BALF four hours after; FIG. 13
Procedure: (§1) Male BALB/c mice, approximately 19 to 21 grams, were ordered from Charles River Laboratories (Raleigh, N.C.). All animals were challenged with aerosolized LPS (10 μg/ml) for 25 minutes on study day 0. LPS aerosol was generated using an Aerogen Aeroneb nebulizer and controller providing a flow of 400 μl/min and a particle size of 2-4 μm MMAD. Rolipram was administered i.p at 20 mg/kg. […] Total cell counts were determined using the Coulter Counter. For differential evaluations, BALF was centrifuged and cytospin slides prepared and stained […]. Manual leukocyte counts were then completed on 200 cells. The final concentration of individual leukocyte cell types per ml of BALF was determined by multiplication of the relative percentage of individual leukocytes with the total amount of cells/ml of BALF fluid. The concentration of IL-1β in the BALF samples was determined using commercially available Bio-plex kits (Bio-Rad).

[2] = tested on: ova-sensitized, ova-challenged mice; assay: Mouse ovalbumin sensitization model: eosinophils in BALF; type: in vivo
Procedure: (§2) Male BALB/c mice were ordered from Charles River Laboratories (Raleigh, N.C.). The animals were approximately 19 to 21 grams at time of receipt. Upon arrival, the animals were randomized into groups of five males per cage and assigned to a dosing group. Animals were quarantined for 7 days under test conditions. They were observed daily for general health status and ability to adapt to the water bottles. Animals were sensitized on day 0 and 14 of study by an intraperitoneal injection with 20 μg of ovalbumin (ova) and 2.0 mg aluminum hydroxide (alum) which initiates the development of a specific T-helper (Th) cells type 2 resulting in asthmatic animals (denoted as Ova in the figures). One group of animals received an injection of saline to use as control animals (denoted as normal in the figures). All animals were challenged with aerosolized 1% ova once daily for 25 minutes on days 28, 29, and 30 (Zosky, et al. Respiratory Research. 2004; 5:15). Aerosol challenge consists of using an Aerogen Aeroneb nebulizer and controller with a particle size of 4-6 μm mass median aerodynamic diameter (MMAD) with a distribution of 400 μl per minute. This aerosol challenge is necessary to target the Th2-driven allergic inflammation in the lower airways. […]
(§3) Bronchoalveolar lavage fluid (BALF) was collected by infusing 3.0 ml of saline with 10% fetal calf serum into the lungs via the trachea and then withdrawing the fluid. The total amount of cells/ml of BALF fluid was determined via manual cell count on hemocytometer. The BALF was centrifuged, supernatant removed and analyzed for cytokine concentrations as described below, and cell pellet reconstituted in 500 μL of fluid. […] Following Hema3 stain, relative percentages of individual leukocytes were determined on a 200 cell count for each sample. The final concentration of individual leukocyte cell types per ml of BALF was determined by multiplication of the relative percentage of individual leukocytes with the total amount of cells/ml of BALF fluid.

[3] = Rat oral pharmacokinetics (plasma); type: in vivo; conditions: rat oral PK, mean n = 3 rats, 20-30 μmmol/kg
Procedure: Plasma (EDTA K2 anticoagulant) was collected from male, cannulated, CD Sprague Dawley rats to determine the pharmacokinetics of formulations containing compound inhibitors of Rho kinase. Each animal was dosed orally with a 4 ml/kg solution or suspension of each test compound in 10 mM acetate buffered saline, pH 4.5 at a final concentration range of 20-30 μmmol/kg. Blood was collected at 0.25, 0.5, 1, 2, 4, 6, 8, and 24 hours. Plasma samples were assayed for the concentration of the test compound using an on-line, solid phase extraction LC/MS/MS analysis system.
Samples were analyzed on a QSTAR Elite, hybrid quadrupole time-of-flight mass spectrometer (Applied Biosystems, Framingham, Mass.) coupled with a Symbiosis Pharma integrated, on-line SPE-HPLC system (Spark Holland Inc., Plainsboro, N.J.). Analyst QS 2.0 software was used for instrument control, data acquisition and processing. […] Mobile Phase A consisted of 0.1% ammonium hydroxide in water and Mobile Phase B consisted of 0.1% formic acid in acetonitrile. Pharmacokinetic analyses were performed using WinNonlin software version 5.2 (Pharsight Corporation, Mountain View, Calif.).
As determined from the plasma concentration versus time curves, the time to peak and peak exposure are represented by the values Tmax and Cmax, respectively. The AUC values (nM*hr) shown were calculated as the areas under the plasma concentration versus time curves from time zero through the time of the last observable value and represent the total exposure of the compound over the course of the study. Half-life values or the amount of time required for the plasma levels of the compound to decline to half the initial value are represented as t1/2.

[4] = tested on: ova-sensitized, ova-challenged mice; assay: Prevention of airway hyperreactivity (Penh, methacholine) in mouse ovalbumin model; type: in vivo
Procedure: The anti-inflammatory dosing paradigm consists of dosing the animals once a day starting on day 27 and finishing on either day 30 or 31 (1 hr prior to the aerosolized ovalbumin challenges on days 28 to 30) but not on day 32 when hyperreactivity evaluation occurs. […] Exposure to the methacholine doses consisted of a 3 minute period during which a nebulizer was aerosolizing the methacholine and an additional 3 minute period following the cessation of nebulization. […] Enhanced pause (Penh), a unitless index of airway hyperreactivity, is derived from the expiratory side of the respiratory waveform measured via the plethysmograph and is used as an indirect measure of airway resistance and hyperreactivity. […] Following the methacholine dose response, BALF was collected and all animals were anesthetized, bled and euthanized. […] The Penh value at each of the dose levels of methacholine represents the 6-minute average response. Change from baseline (CFB) in Penh was calculated at each methacholine dose and the area under the curve (AUC) for these CFB values was calculated using the trapezoidal rule. This same approach was applied for each mouse across multiple experiments. […] Data from equal experimental conditions across experiments performed on different days were pooled for statistical analysis and data reporting. […] A random intercept for each experiment was assumed to account for possible similarities of the results obtained from a given experiment (i.e., as a “blocking effect”). […] For FIG. 9, linear AUC values from compound treated mice were reported as a percent of linear AUC values from vehicle-treated ovalbumin-sensitized/ovalbumin-challenged (asthmatic) mice.

[5] = tested on: LPS-challenged mice; assay: LPS-induced neutrophilia assay; type: in vivo, mouse; conditions: intratracheal 0.5-50 μmol/kg one hour prior to LPS challenge; BALF four hours after; FIG. 12
Procedure: as §1

[6] = tested on: ova-sensitized, ova-challenged mice; assay: Mouse ovalbumin sensitization model: cytokines (IL-5, Eotaxin, IL-13) in BALF; type: in vivo; conditions: oral on days 27 to 31
Procedure: as §2, with “5:15).” for “5:15). Aerosol challenge consists of using an Aerogen Aeroneb nebulizer and controller with a particle size of 4-6 μm mass median aerodynamic diameter (MMAD) with a distribution of 400 μl per minute. This aerosol challenge is necessary to target the Th2-driven allergic inflammation in the lower airways.”
as §3
The concentrations of cytokines in the BALF samples were determined using commercially available Bio-plex kits (Bio-Rad) for the detection of mouse IL-5, IL-13, and Eotaxin. The analysis of cytokine levels was measured using the Bio-Plex 200 (Bio-Rad) system according to the manufacturer's instructions.

[7] = tested on: human eosinophils; assay: Human eosinophil chemotaxis (eotaxin-induced); type: cell-based; conditions: 1 nM eotaxin challenge, one hour; FIG. 11
Description: Peripheral blood from healthy human volunteers was collected and the PMNs separated via Ficoll-paque density centrifugation followed by hypotonic lysis of the red blood cells. Subsequently, the human eosinophils were isolated from the cell suspension via StemCell Technologies Human Eosinophil Enrichment kit (Cat. No 19256) according to the manufacturer's recommendations. Briefly, unwanted cells were specifically labeled with dextran-coated magnetic nanoparticles using bispecific Tetrameric Antibody Complexes (TAC) directed against cell surface antigens on human blood cells: […] The unwanted cells are then separated from the unlabelled eosinophils using the EasySep® magnetic isolation procedure. […] FIG. 11 demonstates that chemotaxis was induced by eotaxin in human eosinophils.

[8] = tested on: murine eosinophils; assay: Murine eosinophil chemotaxis (eotaxin-induced); type: cell-based, mouse; conditions: 10 nM eotaxin challenge, one hour; FIG. 10
Procedure: Bronchoalveolar lavage was collected from ovalbumin sensitized and challenged mice in a volume of 2.5 mL lavage buffer. The lavage buffer was 0.9% saline with 10% fetal bovine serum. The pooled lavages were maintained on ice until use. The murine eosinophils were isolated using MACS cell separation (Miltenyi Biotech) by depletion of B cells and T cells by positive selection following incubation with antibody conjugated magnetic beads specific for CD45-R (B220) and CD90 (Thy 1.2), which bind B cells and T cells, respectively.
Eosinophil chemotaxis was assessed using a modified Boyden Chamber (Neuroprobe, 96-well) with a 5 μm pore membrane. The ability of the tested compounds to block chemotaxis induced by a 10 nM eotaxin challenge (mouse) or 1 nM eotaxin challenge (human) during one hour incubation at 37° C. with 5% CO2 was assessed. Chemotaxis was quantified via microscopy by counting the number of migrated cells in at least 3 view fields per treatment. […] FIG. 11 demonstates that chemotaxis was induced by eotaxin in human eosinophils.

SMILES: CS(=O)(=O)Nc1cccc(CN2CCC[C@H](Nc3ccc4[nH]ncc4c3)C2)c1 [Compound 1.091]
- IL-1β in BALF [1]: reduction
- eosinophils in BALF ([2]; dosed i.t. once a day, day 27 to day 30, FIG. 5): reduction of eosinophils
- AUC (0-last) [3]: BLQ
- Cmax [3]: BLQ
- Tmax [3]: BLQ
- Vz_F [3]: BLQ
- t½ [3]: BLQ
- airway hyperreactivity ([4]; intratracheal once a day, days 27 to 30, FIG. 9): prevention of airway hyperreactivity
- pulmonary neutrophilia influx [5]: significant reduction

SMILES: CS(=O)(=O)Nc1cccc(CN2CC[C@@H](Nc3cccc4cnccc34)C2)c1 [Compound 2.038]
- concentration of IL-5 in BALF ([6]; FIG. 6): reduced levels
- concentration of Eotaxin in BALF ([6]; FIG. 7): reduced levels
- concentration of IL-13 in BALF ([6]; FIG. 8): reduced levels
- eosinophils per ml of BALF ([2]; dosed orally once a day, day 27 to day 31, FIG. 4): reduced
- human eosinophil chemotactic response [7]: inhibited
- airway hyperreactivity to methacholine on Day 32 ([4]; oral 15 μMol/kg once a day, days 27 to 31): prevention of airway hyperreactivity
- murine eosinophil chemotactic response [8]: inhibited
